Assay results published in publication PMC6079084, “Capacity for instantaneous catabolism of preferred and non-preferred carbon sources in Escherichia coli and Bacillus subtilis” (Scientific Reports, 2018).
Blank lines part the entries; values can stand above or below the molecule they belong to.

Assays:
PfkA = biological target: T1, PfkA (Bacillus subtilis, UniProt O34529); experiment: coupled spectrophotometric assay, NADH at […] nm; format: biochemical
T1 construct: full-length, N-terminal His6-Gly3 tag (from primer), recombinant in E. coli BW25113, pTrc99KK, Ni-NTA
T1 sequence (O34529 2-319): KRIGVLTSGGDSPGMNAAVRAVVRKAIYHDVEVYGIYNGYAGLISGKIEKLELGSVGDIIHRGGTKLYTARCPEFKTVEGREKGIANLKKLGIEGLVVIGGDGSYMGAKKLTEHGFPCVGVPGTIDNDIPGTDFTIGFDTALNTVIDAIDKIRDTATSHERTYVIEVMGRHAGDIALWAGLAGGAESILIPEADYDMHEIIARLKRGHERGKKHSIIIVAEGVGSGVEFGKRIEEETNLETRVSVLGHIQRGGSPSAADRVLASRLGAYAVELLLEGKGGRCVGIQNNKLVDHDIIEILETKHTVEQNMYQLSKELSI

purified protein = substrate: CC(=O)C(=O)O; experiment: purified protein; format: biochemical, Bacillus subtilis; conditions: 1 mM ATP, 0.05 mM acetyl-CoA, 15 mM KHCO3, 7 mM MgSO4, 135 mM TEA pH 8, room temperature, pyruvate 0.04-5.0 mM

Ki (PfkA): 40 µM
Molecule: C=C(OP(=O)(O)O)C(=O)O [PEP, phosphoenolpyruvate]

B1: PycA (Bacillus subtilis subsp. subtilis str. 168) (protein)
chain: SQQSIQKVLVANRGEIAIRIFRACTELNIRTVAVYSKEDSGSYHRYKADEAYLVGEGKKPIDAYLDIEGIIDIAKRNKVDAIHPGYGFLSENIHFARRCEEEGIVFIGPKSEHLDMFGDKVKAREQAEKAGIPVIPGSDGPAETLEAVEQFGQANGYPIIIKASLGGGGRGMRIVRSESEVKEAYERAKSEAKAAFGNDEVYVEKLIENPKHIEVQVIGDKQGNVVHLFERDCSVQRRHQKVIEVAPSVSLSPELRDQICEAAVALAKNVNYINAGTVEFLVANNEFYFIEVNPRVQVEHTITEMITGVDIVQTQILVAQGHSLHSKKVNIPEQKDIFTIGYAIQSRVTTEDPQNDFMPDTGKIMAYRSGGGFGVRLDTGNSFQGAVITPYYDSLLVKLSTWALTFEQAAAKMVRNLQEFRIRGIKTNIPFLENVAKHEKFLTGQYDTSFIDTTPELFNFPKQKDRGTKMLTYIGNVTVNGFPGIGKKEKPAFDKPLGVKVDVDQQPARGTKQILDEKGAEGLANWVKEQKSVLLTDTTFRDAHQSLLATRIRSHDLKKIANPTAALWPELFSMEMWGGATFDVAYRFLKEDPWKRLEDLRKEVPNTLFQMLLRSSNAVGYTNYPDNVIKEFVKQSAQSGIDVFRIFDSLNWVKGMTLAIDAVRDTGKVAEAAICYTGDILDKNRTKYDLAYYTSMAKELEAAGAHILGIKDMAGLLKPQAAYELVSALKETIDIPVHLHTHDTSGNGIYMYAKAVEAGVDIIDVAVSSMAGLTSQPSASGFYHAMEGNDRRPEMNVQGVELLSQYWESVRKYYSEFESGMKSPHTEIYEHEMPGGQYSNLQQQAKGVGLGDRWNEVKEMYRRVNDMFGDIVKVTPSSKVVGDMALYMVQNNLTEKDVYEKGESLDFPDSVVELFKGNIGQPHGGFPEKLQKLILKGQEPITVRPGELLEPVSFEAIKQEFKEQHNLEISDQDAVAYALYPKVFTDYVKTTESYGDISVLDTPTFFYGMTLGEEIEVEIERGKTLIVKLISIGEPQPDATRVVYFELNGQPREVVIKDESIKSSVQERLKADRTNPSHIAASMPGTVIKVLAEAGTKVNKGDHLMINEAMKMETTVQAPFSGTIKQVHVKNGEPIQTGDLLLEIEKA
notes: full-length, N-terminal His6-Gly3 tag (from primer), recombinant in E. coli BW25113, pTrc99KK, Ni-NTA
Km (purified protein): 100 µM
